Assay results from ChEMBL document CHEMBL1157539, “Thousands of chemical starting points for antimalarial lead identification” (Nature, 2010).

These compounds were tested on Plasmodium falciparum (assay: GSK_TCMDC: Inhibition of Plasmodium falciparum 3D7 in whole erythrocytes, using parasite LDH activity as an index of growth.). Conditions: Plasmodium falciparum, 3D7.
Assay type: functional, organism-based

Question: For `CCN1CCC(N(Cc2ccc(-c3ccc(C(F)(F)F)cc3)cc2)C(=O)Cn2c(SCc3ccc(F)cc3)nc(=O)c3c2CCC3)CC1`, which XC50 is on record?
Answer: 991 nM

Question: With `CCN1CCC(N(Cc2ccc(-c3ccc(Cl)cc3)cc2)C(=O)Cn2c(CCc3cccc(F)c3F)cc(=O)c3ccccc32)CC1` as the compound, how does the XC50 read?
Answer: 703 nM

Question: How did the XC50 turn out when `CC1CC(C)CN(CCCNc2ccc(C(=O)Nc3ccc(C(F)(F)F)cc3)cc2[N+](=O)[O-])C1` (stereo not drawn) was run?
Answer: 203 nM

Question: With `Clc1ccc(CNC2CCN(CC3CCCCC3)CC2)cc1` as the compound, how does the XC50 read?
Answer: 1110 nM

Question: With `O=C(/C=C/c1ccc(Cl)c(Cl)c1)NCCCCCN1CCCN(C(=O)Nc2ccc(F)c(F)c2)CC1` as the compound, how does the XC50 read?
Answer: 803 nM

Question: With `FC(F)(F)c1ccc2[nH]c(-c3ccc(-c4cccc(CNCCc5ccncc5)c4)s3)nc2c1` as the compound, how does the XC50 read?
Answer: 117 nM

Question: Which XC50 does the source give for `C#CCN1CCC2=C(C1)c1c(O)cc(C(C)C(C)CCc3ccc(F)cc3)cc1OC2(C)C` (stereo not drawn) here?
Answer: 175 nM

Question: `CCCN1CCN(CCCNC(=O)c2cc3c(-c4ccc(Cl)cc4)nn(C)c3s2)CC1` was tested. Which XC50 did it give?
Answer: 1100 nM

Question: `CC(C)C[C@H](NC(=O)c1ccc(OCCN2CCOCC2)cc1)C(=O)NC(/C=N/N1CCCC1=O)C(C)C` (stereo partly drawn) was tested. Which XC50 did it give?
Answer: 248 nM

Question: Which XC50 does the source give for `COc1cc(Cc2cnc(N)nc2N)cc(OCCCc2cc(OCc3ccccc3)no2)c1OC` here?
Answer: 1870 nM

Question: With `CN1CCN(Cc2ccc(OCc3cccc(COc4ccc(CN5CCN(C)CC5)cc4I)c3)c(I)c2)CC1` as the compound, how does the XC50 read?
Answer: 1010 nM

Question: Which XC50 does the source give for `Cc1cc(=NN=Cc2ccccc2F)c2cc(F)ccc2[nH]1` here?
Answer: 299 nM

Question: How did the XC50 turn out when `CCCC(C)Nc1nc(C)cc(N[C@@H](Cc2ccccc2)C(=O)NCCc2ccccc2)n1` (stereo partly drawn) was run?
Answer: 954 nM

Question: How did the XC50 turn out when `CCCn1c(=N)c(C(=O)NCCc2ccccc2)cc2c(=O)n3cccc(C)c3nc21` was run?
Answer: 1120 nM

Question: Which XC50 does the source give for `Cc1c(C)n(C2CCCCC2)c2ncnc(OC3CCN(CC(=O)NC4CC4)CC3)c12` here?
Answer: 1240 nM

Question: For `Cc1ccc2c(c1C)NC(=O)C21NN=C(c2ccccc2)S1` (stereo not drawn), which XC50 is on record?
Answer: 749 nM

Question: `COc1cc2nc(N3CCC(CNC(=O)c4ccc(-c5ccc(C#N)cc5C)cc4)CC3)nc(N)c2cc1OC` was tested. Which XC50 did it give?
Answer: 180 nM

Question: Which XC50 does the source give for `FC(F)(F)c1ccc2[nH]c(-c3cccc(-c4cccc(CNCc5cnn(-c6ccccc6)n5)c4)c3)nc2c1` here?
Answer: 552 nM

Question: With `CCCCOc1ccc(-c2nc3ccccc3[nH]2)cc1` as the compound, how does the XC50 read?
Answer: 865 nM

Question: For `c1cncc(CCNCc2cccc(-c3ccc(-c4nc5ccccc5[nH]4)s3)c2)c1`, which XC50 is on record?
Answer: 202 nM

Question: For `O=C(Nc1cn(-c2ccc(OCc3cccc(F)c3)c(Cl)c2)c2ncncc12)c1ccncc1`, which XC50 is on record?
Answer: 171 nM

Question: How did the XC50 turn out when `CC(=O)Nc1ccc(C(=O)Nc2ccc(-c3cccc(-c4nc5cc(C(F)(F)F)ccc5[nH]4)c3)cc2)cn1` was run?
Answer: 111 nM

Question: With `CC(C)N(Cc1ccc(-c2ccc(C(F)(F)F)cc2)cc1)C(=O)Cn1c(SCc2cccc(F)c2F)cc(=O)c2cc(CN3CCCCC3)ccc21` as the compound, how does the XC50 read?
Answer: 872 nM

Question: With `Cc1[nH]c(C)c(-c2ccc(Br)cc2)c(=O)c1Cl` as the compound, how does the XC50 read?
Answer: 844 nM

Question: With `CC(C)c1ccc(C2CCN(CCCCNC(=O)c3ccc(NC(=O)c4ccc(C(F)(F)F)cc4)cc3)CC2)c(O)c1` as the compound, how does the XC50 read?
Answer: 579 nM

Question: How did the XC50 turn out when `COc1ccc(/C=C/C(=O)Nc2ccc(-c3ccncc3)cc2)cc1CCCN(C)C` was run?
Answer: 753 nM

Question: For `O=C(Nc1ccc(Cl)c(C(F)(F)F)c1)c1ccc(C(=O)Nc2ccc(Cl)c(C(F)(F)F)c2)cc1`, which XC50 is on record?
Answer: 1000 nM

Question: With `CCCCOc1cc(C)nc2ccc(NC(=O)COCC(=O)Nc3ccc4nc(C)cc(OCCCC)c4c3)cc12` as the compound, how does the XC50 read?
Answer: 1000 nM

Question: How did the XC50 turn out when `CC(C)(C)c1ccc(CN2CCCCC(NC(=O)c3cc(-c4ccccc4Cl)cs3)C2)cc1` (stereo not drawn) was run?
Answer: 1120 nM

Question: For `O=C(Nc1cccc(C(F)(F)F)c1)c1ccc(S(=O)(=O)NCC2CCCN(CC3CCCCC3)C2)cc1` (stereo not drawn), which XC50 is on record?
Answer: 899 nM

Question: How did the XC50 turn out when `Nc1c2c(nc3ccc(NC(=O)c4ccc([N+](=O)[O-])cc4)cc13)CCCC2` was run?
Answer: 237 nM

Question: For `CCCCN(CCCC)CCCCNc1c2ccccc2nc2ccccc12`, which XC50 is on record?
Answer: 148 nM

Question: `CC(=O)N(Cc1nc(-c2cc(C(F)(F)F)cc(C(F)(F)F)c2)cs1)c1c(C)cccc1C` was tested. Which XC50 did it give?
Answer: 107 nM

Question: For `O=C(Nc1ccc(NC2=NCCN2)cc1)c1ccc(C(=O)Nc2ccc(NC3=NCCN3)cc2)cc1`, which XC50 is on record?
Answer: 649 nM

Question: How did the XC50 turn out when `COc1ccc(Cl)cc1N1CCN(CCCNC(=O)c2ccc(-c3nc4cnccc4[nH]3)c(Br)c2)CC1` was run?
Answer: 1150 nM

Question: For `Cc1ccc2c(c1)c(-c1ccccc1)c(-c1ccccc1)n2CC(O)CN1CCN(CC=Cc2ccccc2)CC1` (stereo not drawn), which XC50 is on record?
Answer: 782 nM

Question: Which XC50 does the source give for `CC(C)(CN)c1cc(-c2ccc(Cl)c(O)c2)c(-c2ccncc2)o1` here?
Answer: 1140 nM

Question: For `NCCCCc1c(-c2ccc(Cl)c(Cl)c2)[nH]c2ccc(Cl)cc12`, which XC50 is on record?
Answer: 912 nM

Question: Which XC50 does the source give for `CCNC(=O)c1ccc(-n2nc(C)cc2-c2ccccc2)cc1` here?
Answer: 1120 nM

Question: For `O=C(Nc1ccc(Cl)cc1)N[C@H]1CCN(Cc2ccc(OCCCN3CCCCC3)cc2)C1`, which XC50 is on record?
Answer: 671 nM

Question: `CC(C)NCc1cccc(-c2cccc(NC(=O)c3cccc(Cl)c3)c2)c1` was tested. Which XC50 did it give?
Answer: 592 nM

Question: Which XC50 does the source give for `COCCNCc1ccc(-c2ccc3c(Nc4ccc(Cl)cc4F)ccnc3c2)o1` here?
Answer: 206 nM

Question: How did the XC50 turn out when `CC(=NNC(S)=NCCc1ccccn1)c1ccccn1` was run?
Answer: 319 nM

Question: For `CCc1cccc(OCC2CCCN(c3ccc(C(=O)NC4CC4)cn3)C2)c1` (stereo not drawn), which XC50 is on record?
Answer: 1440 nM

Question: For `COC(=O)c1ccc(OCC(O)CO)cc1O` (stereo not drawn), which XC50 is on record?
Answer: 738 nM

Question: For `COc1ccc(-c2ccc(NC(=O)c3cccc(Cl)c3)cc2)cc1CN(C)CCN(C)C`, which XC50 is on record?
Answer: 782 nM

Question: How did the XC50 turn out when `CCOC(=O)NCCSC(C)(C)[C@H](NC(=O)[C@H](Cc1cc2ccccc2s1)[C@H](CC)N(O)C=O)C(=O)Nc1nccs1` was run?
Answer: 296 nM

Question: Which XC50 does the source give for `CCC(C)(CC)C(=O)n1ncc2c3c(N)nc(N)nc3ccc21` here?
Answer: 6 nM

Question: Which XC50 does the source give for `COc1ccc2nccc([C@@H](O)CN3CCC(NC(=O)C(c4ccccc4C)N4CCC(Cc5ccccc5)CC4)CC3)c2c1` (stereo partly drawn) here?
Answer: 261 nM

Question: With `CCOc1cc(Cl)c(C(C)NC(=O)c2ccccc2)cc1OCC` (stereo not drawn) as the compound, how does the XC50 read?
Answer: 875 nM

Question: `N#Cc1ccc(CN2CCCN(Cc3cccc(NC(=O)c4ccc(-c5ccccc5)cc4)c3)CC2)cc1` was tested. Which XC50 did it give?
Answer: 1020 nM

Question: For `CCOc1ccc2c(=NN=Cc3cc(OC)c(OC)cc3OC)cc(C)[nH]c2c1`, which XC50 is on record?
Answer: 997 nM

Question: How did the XC50 turn out when `CC(C)c1ccc(NC(=O)c2cccc(CN3CCCN(Cc4cccc(O)c4)CC3)c2)cc1` was run?
Answer: 772 nM

Question: Which XC50 does the source give for `Cc1ccccc1-c1cc(=O)c2cc(NC(=O)c3cccs3)ccc2o1` here?
Answer: 218 nM

Question: Which XC50 does the source give for `COc1ccccc1CCNc1nccc(N[C@@H](Cc2ccccc2)C(=O)NCc2cccs2)n1` here?
Answer: 871 nM

Question: `CN(C)c1nc2cc(-n3cnc4cc(-c5ccc(Cl)cc5)sc4c3=O)ccc2n1CCCN1CCCC1` was tested. Which XC50 did it give?
Answer: 848 nM

Question: How did the XC50 turn out when `O=C(NC1CCN(Cc2ccccc2)CC1)c1ccc(-c2nc3cc(Cl)c(Cl)cc3[nH]2)c(F)c1` was run?
Answer: 736 nM

Question: With `O=C(Nc1cccc(CN2CCCN(Cc3ccc(F)cc3)CC2)c1)c1ccc(Cl)c(Cl)c1` as the compound, how does the XC50 read?
Answer: 958 nM

Question: Which XC50 does the source give for `CCOc1cc(C(=O)NC2CC(C)(C)N(C)C(C)(C)C2)ccc1-c1nc2cc(Cl)c(Cl)cc2[nH]1` here?
Answer: 861 nM

Question: Which XC50 does the source give for `N#Cc1cc(C(=O)Nc2ccccc2)c(N)nc1SCC(=O)Nc1ccc(Br)cc1` here?
Answer: 1100 nM

Question: How did the XC50 turn out when `CCOc1ccccc1C=CC(=O)Nc1ccc2nc(N3CCN(C)CC3)cc(C)c2c1` was run?
Answer: 273 nM

Question: `C=CCn1c(=N)n(CC(O)c2ccc(Cl)c(Cl)c2)c2ccccc21` (stereo not drawn) was tested. Which XC50 did it give?
Answer: 338 nM

Question: For `CCc1cn2c3c(cc(C(=O)N[C@@H](Cc4ccccc4)[C@H](O)CNC(C)C)cc13)N(C)S(=O)(=O)C2`, which XC50 is on record?
Answer: 317 nM

Question: `COc1ccc(-c2nnc(Sc3ccc(C#N)c([N+](=O)[O-])c3)n2CCC(C)C)cc1` was tested. Which XC50 did it give?
Answer: 1110 nM

Question: `COc1cccc2cc(C(=O)N[C@@H](CC(C)C)C(=O)N[C@H](C=NNC(=O)OC(C)(C)C)Cc3ccccc3)oc12` was tested. Which XC50 did it give?
Answer: 304 nM

Question: How did the XC50 turn out when `CC(=O)N1Cc2ccccc2C1=O` was run?
Answer: 522 nM

Question: `CC(=O)Nc1cccc(-c2cn(-c3ccc(OCc4cccc(F)c4)c(Cl)c3)c3ncncc23)c1` was tested. Which XC50 did it give?
Answer: 70.9 nM

Question: With `CCNc1cc(C(=O)N[C@@H](Cc2ccccc2)[C@H](O)CNCCc2cccc(C(F)(F)F)c2)cc(N2CCCC2=O)c1` as the compound, how does the XC50 read?
Answer: 879 nM
